Measured values: PubChem BioAssay (NCI)
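Assay format: 96-well plates, 48-hour exposure. GI50: concentration for 50% inhibition of growth. TGI: total growth inhibition.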 Where a SMILES comes first, the peptide text is derived from it. The star is where a group is joined. Boc = CC(C)(C)OC(=O)*

Assays:
Assay in all cases: inhibition of tumour cell growth, NCI panel, 48 h
SW-620 colon = system: SW-620 colon
UACC-257 melanoma = system: UACC-257 melanoma
OVCAR-8 ovarian = system: OVCAR-8 ovarian
UACC-62 melanoma = system: UACC-62 melanoma
UO-31 renal = system: UO-31 renal
SN12C renal = system: SN12C renal
A549 NSCLC = system: A549 NSCLC
HT29 colon = system: HT29 colon
SF-295 CNS = system: SF-295 CNS
HCT-116 colon = system: HCT-116 colon
SNB-19 CNS = system: SNB-19 CNS
HOP-92 NSCLC = system: HOP-92 NSCLC
CCRF-CEM leukemia = system: CCRF-CEM leukemia
RXF 393 renal = system: RXF 393 renal
NCI-H522 lung = system: NCI-H522 lung
HS 578T breast = system: HS 578T breast

Row | Compound | TGI (SW-620 colon) [µM] | TGI (UACC-257 melanoma) [µM] | TGI (OVCAR-8 ovarian) [µM] | TGI (UACC-62 melanoma) [µM] | TGI (UO-31 renal) [µM] | TGI (SN12C renal) [µM] | TGI (A549 NSCLC) [µM] | TGI (HT29 colon) [µM] | TGI (SF-295 CNS) [µM] | TGI (HCT-116 colon) [µM] | TGI (SNB-19 CNS) [µM] | TGI (HOP-92 NSCLC) [µM] | TGI (CCRF-CEM leukemia) [µM] | GI50 (SF-295 CNS) [µM] | GI50 (HCT-116 colon) [µM] | GI50 (RXF 393 renal) [µM] | TGI (RXF 393 renal) [µM] | TGI (NCI-H522 lung) [µM] | TGI (HS 578T breast) [µM]
1 | CC(=O)OCc1cc(OC(C)=O)c2cc3c(OC(C)=O)cccc3c(OC(C)=O)c2c1 | 44.2 | 49.1 | 35.4 | 38.7 | 41.2 | 32.2 | 30.9 | 43.9 | 32.9 | > 100 | 50.6 | 52.2 | – | – | – | – | – | – | –
2 | COc1ccc(-c2cc(=O)c3cc4c(cc3[nH]2)OCO4)c(OC)c1 | > 100 | – | > 100 | > 100 | > 100 | > 100 | > 100 | > 100 | > 100 | > 100 | > 100 | > 100 | > 100 | 46.2 | 40.7 | 45.4 | > 100 | > 100 | –
3 | CC1(C)CC(=O)c2c(nc3c(ccc4ccccc43)c2-c2ccc(NC(=O)CCCCCCCCC(=O)Nc3ccc(-c4c5c(nc6c4ccc4ccccc46)CC(C)(C)CC5=O)cc3)cc2)C1 | > 100 | > 100 | > 100 | – | > 100 | > 100 | > 100 | > 100 | > 100 | > 100 | > 100 | – | > 100 | – | – | – | – | > 100 | > 100
4 | O=C(CSc1nc(-c2ccccc2)c(-c2ccccc2)[nH]1)N/N=C/c1ccc([N+](=O)[O-])cc1 | – | 36 | 25.4 | – | 29.5 | 31.9 | 57.5 | 35.8 | 36.1 | 32.7 | – | 29.3 | 61.3 | – | – | – | – | 28.9 | –
5 | Nc1c2ccccc2nc2nccnc12 | > 100 | > 100 | > 100 | > 100 | > 100 | > 100 | > 100 | > 100 | > 100 | > 100 | > 100 | > 100 | > 100 | – | – | – | > 100 | > 100 | –
6 | CNC(=O)CNC(=O)C(NC(=O)CNC(=O)C1CCCN1C(=O)C(C)NC(=O)C(NC(=O)OC(C)(C)C)C(C)C)C(C)C (stereo not drawn) (Boc-VAPGVG-NHMe; configuration not given here) | > 100 | > 100 | > 100 | > 100 | > 100 | > 100 | – | > 100 | > 100 | > 100 | > 100 | > 100 | > 100 | – | – | – | – | > 100 | –
7 | O=C1CCN(CCC(F)(F)C(F)(F)C(F)(F)C(F)(F)F)C(=S)N1 | > 100 | – | > 100 | > 100 | > 100 | > 100 | > 100 | > 100 | > 100 | > 100 | > 100 | – | > 100 | – | – | – | > 100 | > 100 | –
8 | COc1ccc(-c2c(C(C)=O)c(C)n(C3OC(COC(C)=O)C(OC(C)=O)C(OC(C)=O)C3OC(C)=O)c(=S)c2C#N)cc1 (stereo not drawn) | > 100 | > 100 | > 100 | > 100 | 5.01 | > 100 | > 100 | > 100 | > 100 | > 100 | > 100 | 84.6 | > 100 | – | – | – | > 100 | > 100 | –
9 | CC1(C)OC[C@@H]([C@H](C=O)OCc2ccccc2)O1 | > 100 | > 100 | > 100 | > 100 | > 100 | > 100 | > 100 | > 100 | > 100 | > 100 | > 100 | > 100 | > 100 | – | – | – | – | – | > 100
10 | CN1C[C@@H]2CC(=O)CC[C@@H]2C[C@H]1C#N | > 100 | > 100 | > 100 | > 100 | > 100 | > 100 | > 100 | > 100 | > 100 | > 100 | > 100 | > 100 | > 100 | – | – | – | – | > 100 | –
11 | CCOC(=O)C(=O)N=Nc1c(O)[nH]c2ccccc12 | > 100 | > 100 | > 100 | > 100 | > 100 | > 100 | > 100 | – | > 100 | > 100 | > 100 | – | > 100 | – | – | – | > 100 | > 100 | –
12 | N#CC(NNC(=O)Cc1ccccc1)c1ccc(O)cc1 (stereo not drawn) | > 100 | > 100 | > 100 | > 100 | > 100 | > 100 | > 100 | > 100 | > 100 | > 100 | – | > 100 | > 100 | – | – | – | > 100 | > 100 | –
13 | COc1ccc(/C=C2\C(=O)Nc3ccccc32)cc1OC | > 100 | > 100 | > 100 | > 100 | > 100 | > 100 | > 100 | > 100 | > 100 | > 100 | > 100 | > 100 | > 100 | – | – | – | > 100 | > 100 | –
14 | O=c1[nH]ncc2[nH]c(-c3ccccc3)cc12 | > 100 | > 100 | > 100 | > 100 | > 100 | > 100 | > 100 | > 100 | > 100 | > 100 | > 100 | > 100 | > 100 | – | – | – | 96.5 | – | –
15 | C=CC(C)(C)c1c(OC)oc2ccc(OC)c(C)c2c1=O | > 100 | > 100 | > 100 | > 100 | > 100 | > 100 | > 100 | > 100 | > 100 | > 100 | > 100 | – | > 100 | – | – | – | – | > 100 | > 100
16 | NC(=S)N/N=C/c1cn(CCCl)c2ccccc12 | > 100 | > 100 | > 100 | > 100 | > 100 | > 100 | > 100 | > 100 | > 100 | > 100 | > 100 | > 100 | > 100 | – | – | – | > 100 | > 100 | –
17 | CC(=O)c1cc2sc3ccccc3c2[nH]1 | > 100 | – | > 100 | > 100 | > 100 | > 100 | > 100 | > 100 | > 100 | > 100 | > 100 | > 100 | – | – | – | – | > 100 | > 100 | –
18 | CC1(C)OP(=O)(c2ccccc2)C=C1Br (stereo not drawn) | > 100 | > 100 | > 100 | > 100 | – | > 100 | > 100 | > 100 | > 100 | > 100 | > 100 | > 100 | – | – | – | – | – | > 100 | > 100
19 | COC(=O)C(=O)C(C(=O)C(=O)Nc1ccccc1C(N)=O)c1nc2ccc([N+](=O)[O-])cc2[nH]c1=O (stereo not drawn) | > 100 | > 100 | > 100 | > 100 | > 100 | > 100 | > 100 | > 100 | > 100 | > 100 | > 100 | > 100 | > 100 | – | – | – | > 100 | > 100 | –
20 | CC1=N/C(=C\c2ccc(N)cc2)C(=O)N1Nc1nnc(NN2C(=O)/C(=C/c3ccc(N)cc3)N=C2C)c2ccccc12 | > 100 | > 100 | > 100 | > 100 | – | > 100 | > 100 | > 100 | 69.3 | > 100 | > 100 | > 100 | > 100 | – | – | – | > 100 | 41.7 | –
21 | COc1cc(Br)cc2c1O[C@H]1C(=O)CC3CC21CCN3C (stereo partly drawn) | > 100 | > 100 | 71.7 | > 100 | > 100 | – | > 100 | > 100 | > 100 | > 100 | > 100 | – | 43.9 | – | – | – | – | – | > 100
22 | COc1cc(C2SC(N)=Nc3c2c(C)nn3C(=O)Cc2ccccc2)cc(OC)c1OC (stereo not drawn) | > 100 | > 100 | > 100 | > 100 | > 100 | > 100 | > 100 | > 100 | > 100 | > 100 | > 100 | – | > 100 | – | – | – | – | > 100 | > 100
23 | CCC1CN2CCc3cc(OC)c(OC)cc3C2CC1CC1c2cc(OC)c(OC)cc2CCN1C(=O)C(Cc1c[nH]c2ccccc12)NC(=O)OC(C)(C)C (stereo not drawn) | 9.03 | 8.53 | 8.58 | 14 | 7.77 | 8.7 | 7.93 | 4.01 | 9.31 | 5.78 | 17.6 | 7.1 | 15.7 | – | – | – | 7.3 | 5.57 | –
24 | CC1OC(n2ccc3ccc([N+](=O)[O-])cc32)C(O)C(O)C1O (stereo not drawn) | > 100 | > 100 | > 100 | > 100 | > 100 | > 100 | > 100 | > 100 | > 100 | > 100 | > 100 | > 100 | > 100 | – | – | – | > 100 | > 100 | –
